From patent US10888505B2, “Dosage of foam for delivering consumer desired dosage volume, surfactant amount, and scalp health agent amount in an optimal formulation space” (The Procter & Gamble Company, priority 2016, dated 2021)
Where two headings read alike, the source gives them in different places.

Test system: Malassezia furfur
Details: inhibition of growth of the Malassezia fungus
Procedure: Malassezia furfur is grown in a flask containing mDixon medium (see E. Gueho, et. al. Antoninie Leeuwenhock (1996), no. 69, 337-55, which description is incorporated by reference herein). Dilutions of solubilized anti-microbial active or diluted products are then added to test tubes containing molten mDixon agar. M. furfur inoculum is added to each tube of molten agar, the tube vortexed, and the contents poured into separate sterile petri dishes. After the plates are incubated, they are observed for visible M. furfur growth. The lowest tested dilution of anti-microbial active or finished product that comprises that yields no growth is defined as the Minimal Inhibitory Concentration (MIC).

Compound: [O-]n1ccccc1=S.[O-]n1ccccc1=S.[Zn+2] [ZPT, zinc salt of 1-hydroxy-2-pyridinethione]
- Minimum Inhibitory Concentration (MIC) (parts active per million parts product and dilution media): 5 ppm
- Minimum Inhibitory Concentration (MIC) (same MIC expressed as g active per 100 g (product + dilution solution)): 0.0005 g/100 g
